Test system: cholesterol absorption from the intestine
Experiment: In Vivo Assay of Hypolipidemic Agents using the Rat Cholesterol Absorption Model
Parameters: species or system Female Sprague-Dawley rats
Conditions: po, Table 1, perorally, 1 mg/kg, 3H levels in serum three hours after 3H-cholesterol, versus vehicle only control
Method: In Vivo Assay of Hypolipidemic Agents using the Rat Cholesterol Absorption Model. This model is based on models described by Burnett et al (2002), Bioorg. Med. Chem. Lett. 2002 Feb 11;12(3):315-8 and J. Lipid Res. 1999 Oct;40(10):1747-57. Female Sprague-Dawley rats weighing 150-250g are separated into […] and fasted overnight. The animals (4-6/group) are dosed perorally with 300µL test compounds in olive oil or suitable vehicle. Thirty minutes later, 3-5 microCuries ^3H-cholesterol per rat are delivered perorally in 300 µL olive oil. After three hours, 200 µL serum is collected, vortexed with scintillation fluid, and measured for radioactivity in a scintillation counter. Percent inhibition is defined as 100*(1-Ctest/Cctrl), where Ctest and Cctrl refer to ^3H levels in serum for the test compound and for the vehicle only control, respectively. Percent inhibition values are reported for a fixed dose. The ED50 is the dose at which the half-maximal effect on serum ^3H levels is observed for a given test compound.
Representative compounds of the invention were tested in the Rat Cholesterol Absorption model above.

Compound | inhibition at 1 mg/kg [%]
O=C1[C@H](CC[C@H](O)c2ccc(F)cc2)[C@@H](c2ccc(-c3cccc(P(=O)(O)O)c3)cc2)N1c1ccccc1 [Example 56, (4'-{(2S,3R)-3-[(3S)-3-(4-Fluorophenyl)-3-hydroxypropyl]-4-oxo-1-phenylazetidin-2-yl}biphenyl-3-yl)phosphonic acid] | 59
O=C1[C@H](CC[C@H](O)c2ccc(F)cc2)[C@@H](c2ccc(-c3cccc(OC[C@H]4OC(O)[C@H](O)[C@@H](O)[C@@H]4O)c3)cc2)N1c1ccc(F)cc1 (stereo partly drawn) [Example 76, 6-O-(4'-{(2S,3R)-1-(4-Fluorophenyl)-3-[(3S)-3-(4-fluorophenyl)-3-hydroxypropyl]-4-oxoazetidin-2-yl}biphenyl-3-yl)-D-glucopyranose] | 56
CO[C@H]1O[C@H](COc2cccc(-c3ccc([C@@H]4[C@@H](CC[C@H](O)c5ccc(F)cc5)C(=O)N4c4ccc(F)cc4)cc3)c2)[C@@H](O)[C@H](O)[C@H]1O [Example 77, methyl 6-O-(4'-{(2S,3R)-1-(4-fluorophenyl)-3-[(3S)-3-(4-fluorophenyl)-3-hydroxypropyl]-4-oxoazetidin-2-yl}biphenyl-3-yl)-α-D-glucopyranoside] | 70
O=C1[C@H](CC[C@H](O)c2ccc(F)cc2)[C@@H](c2ccc(-c3cccc(OC[C@@H](O)[C@@H](O)[C@H](O)[C@@H](O)CO)c3)cc2)N1c1ccc(F)cc1 [Example 78, 6-O-(4'-{(2S,3R)-1-(4-Fluorophenyl)-3-[(3S)-3-(4-fluorophenyl)-3-hydroxypropyl]-4-oxoazetidin-2-yl}biphenyl-3-yl)-D-glucitol] | 51
COc1ccc(-c2ccc([C@@H]3[C@@H](CC[C@H](O)c4ccc(F)cc4)C(=O)N3c3ccc(F)cc3)cc2)cc1OC [Example 81, (3R,4S)-4-(3',4'-dimethoxybiphenyl-4-yl)-1-(4-fluorophenyl)-3-[(3 S)-3-(4-fluorophenyl)-3-hydroxypropyl]azetidin-2-one] | 17
CSc1cccc(-c2ccc([C@@H]3[C@@H](CC[C@H](O)c4ccc(F)cc4)C(=O)N3c3ccc(F)cc3)cc2)c1 [Example 82, (3R,4S)-1-(4-fluorophenyl)-3-[(3S)-3-(4-fluorophenyl)-3-hydroxypropyl]-4-[3'-(methylthio)biphenyl-4-yl]azetidin-2-one] | 28
CN(C)c1cccc(-c2ccc([C@@H]3[C@@H](CC[C@H](O)c4ccc(F)cc4)C(=O)N3c3ccc(F)cc3)cc2)c1 [Example 83, (3R,4S)-4-[3'-(dimethylamino)biphenyl-4-yl]-1-(4-fluorophenyl)-3-[(3 S)-3-(4-fluorophenyl)-3-hydroxypropyl]azetidin-2-one] | 38
C=Cc1ccc(-c2ccc([C@@H]3[C@@H](CC[C@H](O)c4ccc(F)cc4)C(=O)N3c3ccc(F)cc3)cc2)cc1 [Example 84, (3R,4S)-1-(4-fluorophenyl)-3-[(3S)-3-(4-fluorophenyl)-3-hydroxypropyl]-4-(4'-vinylbiphenyl-4-yl)azetidin-2-one] | 51
COc1ccc(C=O)c(-c2ccc([C@@H]3[C@@H](CC[C@H](O)c4ccc(F)cc4)C(=O)N3c3ccc(F)cc3)cc2)c1 [Example 85, 4'-{(2S,3R)-1-(4-fluorophenyl)-3-[(3S)-3-(4-fluorophenyl)-3-hydroxypropyl]-4-oxoazetidin-2-yl}-5-methoxybiphenyl-2-carbaldehyde] | 15
Nc1cccc(-c2ccc([C@@H]3[C@@H](CC[C@H](O)c4ccc(F)cc4)C(=O)N3c3ccc(F)cc3)cc2)c1 [Example 86, (3R,4S)-4-(3'-aminabiphenyl-4-yl)-1-(4-fluorophenyl)-3-[(3S)-3-(4-fluorophenyl)-3-hydroxypropyl]azetidin-2-one] | 35

Same assay, conditions: po, Table 2, footnote 5, perorally, 0.1 mg/kg

Compound | inhibition at 0.1 mg/kg [%]
O=C1[C@H](CC[C@H](O)c2ccc(F)cc2)[C@@H](c2ccc(-c3cccc([C@@H]4O[C@H](CO)[C@@H](O)[C@H](O)[C@H]4O)c3)cc2O)N1c1ccccc1 [Example 65, (1S)-1,5-anhydro-1-(4'-{(2S,3R)-3-[(3S)-3-(4-fluorophenyl)-3-hydroxypropyl]-4-oxo-1-phenylazetidin-2-yl}-3'-hydroxybiphenyl-3-yl)-D-glucitol] | 60

Same assay, conditions: po, Table 2, footnote 6, perorally, 0.3 mg/kg

Compound | inhibition at 0.3 mg/kg [%]
O=C1[C@H](CC[C@H](O)c2ccc(F)cc2)[C@@H](c2ccc(-c3ccc([C@@H]4O[C@H](CO)[C@@H](O)[C@H](O)[C@H]4O)cc3)cc2O)N1c1ccccc1 [Example 66, (1S)-1,5-Anhydro-1-(4'-{(2S,3R)-3-[(3S)-3-(4-fluorophenyl)-3-hydroxypropyl]-4-oxo-1-phenylazetidin-2-yl}-3'-hydroxybiphenyl-4-yl)-D-glucitol] | 71
O=C1[C@H](CC[C@H](O)c2ccc(F)cc2)[C@@H](c2ccc(-c3cccc([C@@H](O)[C@H]4OC(O)[C@H](O)[C@@H](O)[C@@H]4O)c3)cc2)N1c1ccccc1 (stereo partly drawn) [Example 72, (6R)-6-C-(4'-{(2S,3R)-3-[(3S)-3-(4-Fluorophenyl)-3-hydroxypropyl]-4-oxo-1-phenylazetidin-2-yl}biphenyl-3-yl)-D-glucopyranose] | 27

Same assay, conditions: po, Table 2, footnote mark 3 (defined only under Table 1: 5 mg/kg), perorally

Compound | inhibition at 5 mg/kg [%]
O=C1[C@H](CC[C@H](O)c2ccc(F)cc2)[C@@H](c2ccc(-c3cccc(P(=O)(O)O)c3)cc2O)N1c1ccccc1 [Example 61, (4'-{(2S,3R)-3-[(3S)-3-(4-Fluorophenyl)-3-hydroxypropyl]-4-oxo-1-phenylazetidin-2-yl}-3'-hydroxybiphenyl-3-yl)phosphonic acid] | 58

Same assay, conditions: po, Table 2, perorally, 1 mg/kg, 3H levels in serum three hours after 3H-cholesterol, versus vehicle only control

Compound | inhibition at 1 mg/kg [%]
O=C1[C@H](CC[C@H](O)c2ccc(F)cc2)[C@@H](c2ccc(-c3cccc(O)c3)s2)N1c1ccccc1 [Example 50, (3R,4S)-3-[(3S)-3-(4-Fluorophenyl)-3-hydroxypropyl]-4-[5-(3-hydroxyphenyl)-2-thienyl]-1-phenylazetidin-2-one] | 27
O=C1[C@H](CC[C@H](O)c2ccc(F)cc2)[C@@H](c2ccc(-c3ccc(O)cc3)s2)N1c1ccccc1 [Example 51, (3R,4S)-3-[(3S)-3-(4-Fluorophenyl)-3-hydroxypropyl]-4-[5-(4-hydroxyphenyl)-2-thienyl]-1-phenylazetidin-2-one] | 39
O=C1[C@H](CCC(O)c2ccc(F)cc2)[C@@H](c2ccc(-c3cccc(S(=O)(=O)O)c3)cc2O)N1c1ccccc1 (stereo partly drawn) [Example 53, Sodium 4'-{(2S,3R)-3-[(3S/R)-3-(4-fluorophenyl)-3-hydroxypropyl]-4-oxo-1-phenylazetidin-2-yl}-3'-hydroxybiphenyl-3-sulfonate] | 78
O=C1[C@H](CC[C@H](O)c2ccc(F)cc2)[C@@H](c2ccc(-c3cccc(O)c3)cc2)N1c1ccccc1 [Example 57, (3R,4S)-3-[(3S)-3-(4-Fluorophenyl)-3-hydroxypropyl]-4-(3'-hydroxybiphenyl-4-yl)-1-phenylazetidin-2-one] | 73
O=C1[C@H](CC[C@H](O)c2ccc(F)cc2)[C@@H](c2ccc(-c3cccc(B(O)O)c3)cc2)N1c1ccccc1 [Example 59, (4'-{(2S,3R)-3-[(3S)-3-(4-Fluorophenyl)-3-hydroxypropyl]-4-oxo-1-phenylazetidin-2-yl}biphenyl-3-yl)boronic acid] | 70
O=C1[C@H](CC[C@H](O)c2ccc(F)cc2)[C@@H](c2ccc(-c3cccc([C@@H]4O[C@H](CO)[C@@H](O)[C@H](O)[C@H]4O)c3)cc2)N1c1ccccc1 [Example 64, (1S)-1,5-anhydro-1-(4'-{(2S,3R)-3-[(3S)-3-(4-fluorophenyl)-3-hydroxypropyl]-4-oxo-1-phenylazetidin-2-yl}biphenyl-3-yl)-D-glucitol] | 67
O=C1[C@H](CC[C@H](O)c2ccc(F)cc2)[C@@H](c2ccc(-c3cccc([C@H](O)[C@H]4OC(O)[C@H](O)[C@@H](O)[C@@H]4O)c3)cc2)N1c1ccccc1 (stereo partly drawn) [Example 71, (6S)-6-C-(4'-{(2S,3R)-3-[(3S)-3-(4-Fluorophenyl)-3-hydroxypropyl]-4-oxo-1-phenylazetidin-2-yl}biphenyl-3-yl)-D-glucopyranose] | 65
O=C1[C@H](CC[C@H](O)c2ccc(F)cc2)[C@@H](c2ccc(-c3cccc([C@H](O)[C@H]4OC(O)[C@H](O)[C@@H](O)[C@@H]4O)c3)cc2O)N1c1ccccc1 (stereo partly drawn) [Example 73, (6S)-6-C-(4'-{(2S,3R)-3-[(3S)-3-(4-Fluorophenyl)-3-hydroxypropyl]-4-oxo-1-phenylazetidin-2-yl}-3'-hydroxybiphenyl-3-yl)-D-glucopyranose] | 59
O=C1[C@H](CC[C@H](O)c2ccc(F)cc2)[C@@H](c2ccc(-c3cccc([C@@H](O)[C@H]4OC(O)[C@H](O)[C@@H](O)[C@@H]4O)c3)cc2O)N1c1ccccc1 (stereo partly drawn) [Example 74, (6R)-6-C-(4'-{(2S,3R)-3-[(3S)-3-(4-Fluorophenyl)-3-hydroxypropyl]-4-oxo-1-phenylazetidin-2-yl}-3'-hydroxybiphenyl-3-yl)-D-glucopyranose] | 67
O=C1[C@H](CC[C@H](O)c2ccc(F)cc2)[C@@H](c2ccc(-c3cccc([C@H](O)[C@@H](O)[C@@H](O)[C@H](O)[C@@H](O)CO)c3)cc2O)N1c1ccccc1 [Example 75, (6S)-6-C-(4'-{(2S,3R)-3-[(3S)-3-(4-Fluorophenyl)-3-hydroxypropyl]-4-oxo-1-phenylazetidin-2-yl}-3'-hydroxybiphenyl-3-yl)-D-glucitol] | 68
